Measurements published in ChEMBL document CHEMBL4038272, “Synthesis and biological evaluation of novel podophyllotoxin-NSAIDs conjugates as multifunctional anti-MDR agents against resistant human hepatocellular carcinoma Bel-7402/5-FU cells” (Eur J Med Chem, 2017).
The source made the active and inactive calls. No cut-off for these calls is given here.

Experiments:
Bel7402/5-FU [1] = assay: Effect on cyclinA expression in human Bel7402/5-FU cells assessed as ratio of cyclinA to beta-actin level at 2 uM after 48 hrs by Western blot analysis (reference value: 0.39); assay type: functional
Bel7402/5-FU [2] = assay: Induction of apoptosis in human Bel7402/5-FU cells assessed as live cells at 2 uM after 48 hrs by Annexin V-APC/7-AAD staining based flow cytometry (reference value: 91.08%); assay type: functional
Bel7402/5-FU [3] = assay: Induction of apoptosis in human Bel7402/5-FU cells assessed as late apoptotic cells at 2 uM after 48 hrs by Annexin V-APC/7-AAD staining based flow cytometry (reference value: 3%); assay type: functional
Bel7402/5-FU [4] = assay: Effect on COX1 expression in human Bel7402/5-FU cells assessed as ratio of COX1 to beta-actin level at 2 uM after 48 hrs by Western blot analysis (reference value: 0.48); assay type: functional
Bel7402/5-FU [5] = assay: Induction of apoptosis in human Bel7402/5-FU cells assessed as ratio of cleaved caspase-9 to beta-actin level at 2 uM after 48 hrs by Western blot analysis (reference value: 0.17); assay type: functional
[6] = Resistant factor, ratio of IC50 for human Bel7402/5-FU cells to IC50 for human Bel7402 cells; assay type: functional
Bel7402/5-FU [7] = assay: Induction of apoptosis in human Bel7402/5-FU cells at 2 uM after 24 hrs by Hoechst 33342 staining based fluorescent microscopic method; assay type: functional, cell-based
Bel7402/5-FU [8] = assay: Effect on VEGFR2 expression in human Bel7402/5-FU cells assessed as ratio of VEGFR2 to beta-actin level at 2 uM after 48 hrs by Western blot analysis (reference value: 0.25); assay type: functional
Bel7402/5-FU [9] = assay: Induction of apoptosis in human Bel7402/5-FU cells assessed as condensed nuclei at 2 uM after 24 hrs by Hoechst 33342 staining based fluorescent microscopic method; assay type: functional, cell-based
Bel7402/5-FU [10] = assay: Induction of apoptosis in human Bel7402/5-FU cells assessed as reduction in cell number at 2 uM after 24 hrs by Hoechst 33342 staining based fluorescent microscopic method; assay type: functional
Bel7402/5-FU [11] = assay: Effect on P-gp expression in human Bel7402/5-FU cells assessed as ratio of P-gp to beta-actin level at 2 uM after 48 hrs by Western blot analysis (reference value: 0.59); assay type: functional
Bel7402/5-FU [12] = assay: Induction of apoptosis in human Bel7402/5-FU cells assessed as morphological changes at 2 uM after 24 hrs by Hoechst 33342 staining based fluorescent microscopic method; assay type: functional, cell-based
Bel7402/5-FU [13] = assay: Effect on iNOS expression in human Bel7402/5-FU cells assessed as ratio of iNOS to beta-actin level at 2 uM after 48 hrs by Western blot analysis (reference value: 0.13); assay type: functional
Bel7402/5-FU [14] = assay: Antimigratory activity in human Bel7402/5-FU cells at 2 uM after 24 hrs by wound healing assay; assay type: functional, cell-based
Bel7402/5-FU [15] = assay: Reduction in microtubule density in human Bel7402/5-FU cells at 2 uM after 24 to 48 hrs by DAPI staining based immunofluorescence microscopic method; assay type: functional, cell-based
Bel7402/5-FU [16] = assay: Induction of apoptosis in human Bel7402/5-FU cells assessed as ratio of cleaved PARP to beta-actin level at 2 uM after 48 hrs by Western blot analysis (reference value: 0.2); assay type: functional
Bel7402/5-FU [17] = assay: Induction of apoptosis in human Bel7402/5-FU cells assessed as ratio of cleaved caspase-8 to beta-actin level at 2 uM after 48 hrs by Western blot analysis (reference value: 0.17); assay type: functional
Bel7402/5-FU [18] = assay: Effect on CDK2 expression in human Bel7402/5-FU cells assessed as ratio of CDK2 to beta-actin level at 2 uM after 48 hrs by Western blot analysis (reference value: 0.43); assay type: functional
Bel7402/5-FU [19] = assay: Effect on cyclinB1 expression in human Bel7402/5-FU cells assessed as ratio of cyclinB1 to beta-actin level at 2 uM after 48 hrs by Western blot analysis (reference value: 0.53); assay type: functional
Bel7402/5-FU [20] = assay: Effect on MRP1 expression in human Bel7402/5-FU cells assessed as ratio of MRP1 to beta-actin level at 2 uM after 48 hrs by Western blot analysis (reference value: 0.58); assay type: functional
Bel7402/5-FU [21] = assay: Antiproliferative activity against human Bel7402/5-FU cells after 72 hrs by CCK-8 assay; assay type: functional, cell-based
Bel7402/5-FU [22] = assay: Effect on E-cadherin expression in human Bel7402/5-FU cells assessed as ratio of E-cadherin to beta-actin level at 2 uM after 48 hrs by Western blot analysis (reference value: 0.2); assay type: functional
Bel7402/5-FU [23] = assay: Cell cycle arrest in human Bel7402/5-FU cells assessed as accumulation at G1 phase at 2 uM after 48 hrs by propidium iodide staining based flow cytometry (reference value: 52.21%); assay type: functional
Bel7402/5-FU [24] = assay: Effect on MMP2 expression in human Bel7402/5-FU cells assessed as ratio of MMP2 to beta-actin level at 2 uM after 48 hrs by Western blot analysis (reference value: 0.3); assay type: functional
Bel7402/5-FU [25] = assay: Cell cycle arrest in human Bel7402/5-FU cells assessed as accumulation at G2 phase at 2 uM after 48 hrs by propidium iodide staining based flow cytometry (reference value: 35.16%); assay type: functional
Bel7402/5-FU [26] = assay: Induction of microtubule disruption in human Bel7402/5-FU cells at 2 uM after 24 to 48 hrs by DAPI staining based immunofluorescence microscopic method; assay type: functional, cell-based
[27] = molecular target: Mitogen-activated protein kinase; ERK1/ERK2 (Homo sapiens) (UniProt P27361+P28482); assay: Effect on ERK1/2 phosphorylation in human Bel7402/5-FU cells assessed as ratio of phosphorylated ERK1/2 to beta-actin level at 2 uM after 48 hrs by Western blot analysis (reference value: 0.59); assay type: cell-based
Chain of Mitogen-activated protein kinase; ERK1/ERK2 (Homo sapiens) (P27361 whole entry, looked up): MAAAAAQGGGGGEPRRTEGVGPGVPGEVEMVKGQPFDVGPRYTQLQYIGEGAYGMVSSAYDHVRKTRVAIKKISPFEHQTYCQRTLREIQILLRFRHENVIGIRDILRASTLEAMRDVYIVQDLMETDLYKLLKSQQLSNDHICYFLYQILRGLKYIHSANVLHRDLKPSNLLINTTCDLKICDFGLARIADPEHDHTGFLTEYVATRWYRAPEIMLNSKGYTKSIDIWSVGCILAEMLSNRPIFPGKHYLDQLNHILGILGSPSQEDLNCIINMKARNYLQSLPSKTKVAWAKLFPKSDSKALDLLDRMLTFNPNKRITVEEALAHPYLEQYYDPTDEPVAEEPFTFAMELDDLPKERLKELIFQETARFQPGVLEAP
Chain of Mitogen-activated protein kinase; ERK1/ERK2 (Homo sapiens) (P28482 whole entry, looked up): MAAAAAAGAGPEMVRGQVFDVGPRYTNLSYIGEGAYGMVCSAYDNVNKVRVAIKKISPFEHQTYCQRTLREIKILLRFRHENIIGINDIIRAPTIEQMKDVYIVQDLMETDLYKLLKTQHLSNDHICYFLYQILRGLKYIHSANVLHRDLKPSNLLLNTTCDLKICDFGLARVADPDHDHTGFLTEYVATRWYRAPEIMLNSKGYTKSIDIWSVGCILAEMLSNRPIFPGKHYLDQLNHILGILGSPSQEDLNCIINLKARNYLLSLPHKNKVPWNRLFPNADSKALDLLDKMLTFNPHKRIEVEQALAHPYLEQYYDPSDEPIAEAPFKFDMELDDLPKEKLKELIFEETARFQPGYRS

[28] = molecular target: Signal transducer and activator of transcription 3 (Homo sapiens) (UniProt P40763); assay: Effect on STAT3 phosphorylation in human Bel7402/5-FU cells assessed as ratio of phosphorylated STAT3 to beta-actin level at 2 uM after 48 hrs by Western blot analysis (reference value: 0.3); assay type: cell-based
Chain of Signal transducer and activator of transcription 3 (Homo sapiens) (P40763 whole entry): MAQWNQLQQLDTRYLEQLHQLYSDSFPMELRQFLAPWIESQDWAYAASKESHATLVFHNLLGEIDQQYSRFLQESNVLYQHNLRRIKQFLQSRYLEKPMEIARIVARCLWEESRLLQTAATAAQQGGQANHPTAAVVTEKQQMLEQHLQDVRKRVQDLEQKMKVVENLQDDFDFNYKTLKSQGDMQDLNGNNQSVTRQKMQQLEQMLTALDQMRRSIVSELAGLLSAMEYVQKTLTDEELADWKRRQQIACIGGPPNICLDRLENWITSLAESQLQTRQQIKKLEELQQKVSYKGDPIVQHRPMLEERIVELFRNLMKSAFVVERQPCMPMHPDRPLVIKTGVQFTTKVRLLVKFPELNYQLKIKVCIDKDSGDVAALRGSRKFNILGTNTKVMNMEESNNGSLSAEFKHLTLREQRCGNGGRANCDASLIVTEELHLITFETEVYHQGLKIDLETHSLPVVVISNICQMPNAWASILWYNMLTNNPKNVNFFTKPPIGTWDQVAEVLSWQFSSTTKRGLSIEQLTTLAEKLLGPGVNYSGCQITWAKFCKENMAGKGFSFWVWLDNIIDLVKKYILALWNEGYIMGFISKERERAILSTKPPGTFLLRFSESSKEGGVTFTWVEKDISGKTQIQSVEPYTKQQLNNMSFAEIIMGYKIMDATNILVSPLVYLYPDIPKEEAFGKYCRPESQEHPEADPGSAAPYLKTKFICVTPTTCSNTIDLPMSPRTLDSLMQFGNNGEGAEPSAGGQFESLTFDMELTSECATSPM

Bel7402/5-FU [29] = assay: Cell cycle arrest in human Bel7402/5-FU cells assessed as accumulation at S phase at 2 uM after 48 hrs by propidium iodide staining based flow cytometry (reference value: 12.62%); assay type: functional
Bel-7402 = assay: Antiproliferative activity against human Bel7402 cells after 72 hrs by CCK-8 assay; assay type: functional, cell-based; conditions: Bel-7402, 72 h
Bel7402/5-FU [30] = assay: Induction of apoptosis in human Bel7402/5-FU cells assessed as ratio of cleaved caspase-3 to beta-actin level at 2 uM after 48 hrs by Western blot analysis (reference value: 0.19); assay type: functional
Bel7402/5-FU [31] = assay: Effect on CDK1 expression in human Bel7402/5-FU cells assessed as ratio of CDK1 to beta-actin level at 2 uM after 48 hrs by Western blot analysis (reference value: 0.33); assay type: functional
Bel7402/5-FU [32] = assay: Effect on COX2 expression in human Bel7402/5-FU cells assessed as ratio of COX2 to beta-actin level at 2 uM after 48 hrs by Western blot analysis (reference value: 0.36); assay type: functional
Bel7402/5-FU [33] = assay: Induction of apoptosis in human Bel7402/5-FU cells assessed as early apoptotic cells at 2 uM after 48 hrs by Annexin V-APC/7-AAD staining based flow cytometry (reference value: 5.24%); assay type: functional
L02 = assay: Antiproliferative activity against human LO2 cells after 72 hrs by CCK-8 assay; assay type: cell-based; conditions: L02, 72 h
Bel7402/5-FU [34] = assay: Induction of apoptosis in human Bel7402/5-FU cells assessed as necrotic cells at 2 uM after 48 hrs by Annexin V-APC/7-AAD staining based flow cytometry (reference value: 0.58%); assay type: functional
[35] = molecular target: RAC-alpha serine/threonine-protein kinase (Homo sapiens) (UniProt P31749); assay: Effect on AKT phosphorylation in human Bel7402/5-FU cells assessed as ratio of phosphorylated AKT to beta-actin level at 2 uM after 48 hrs by Western blot analysis (reference value: 0.39); assay type: cell-based
Chain of RAC-alpha serine/threonine-protein kinase (Homo sapiens) (P31749 whole entry): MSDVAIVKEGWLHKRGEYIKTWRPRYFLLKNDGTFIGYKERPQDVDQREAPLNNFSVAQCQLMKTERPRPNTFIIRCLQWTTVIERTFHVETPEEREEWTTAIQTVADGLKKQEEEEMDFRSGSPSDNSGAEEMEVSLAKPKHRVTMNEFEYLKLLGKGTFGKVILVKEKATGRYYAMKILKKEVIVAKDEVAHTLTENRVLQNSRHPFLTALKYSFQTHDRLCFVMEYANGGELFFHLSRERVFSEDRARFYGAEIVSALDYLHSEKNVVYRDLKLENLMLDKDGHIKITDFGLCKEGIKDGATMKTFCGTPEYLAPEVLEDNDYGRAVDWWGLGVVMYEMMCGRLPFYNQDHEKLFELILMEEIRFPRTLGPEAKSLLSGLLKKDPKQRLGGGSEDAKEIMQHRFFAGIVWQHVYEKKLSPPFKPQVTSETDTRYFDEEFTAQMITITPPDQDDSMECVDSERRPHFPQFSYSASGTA

## COc1ccc2c(c1)c(CC(=O)O[C@H]1c3cc4c(cc3[C@@H](c3cc(OC)c(OC)c(OC)c3)[C@H]3C(=O)OC[C@@H]31)OCO4)c(C)n2C(=O)c1ccc(Cl)cc1
Bel7402/5-FU [1]
  Ratio: 0.26
Bel7402/5-FU [2]
  Activity: 66.98%
Bel7402/5-FU [3]
  Activity: 20.65%
Bel7402/5-FU [4]
  Ratio: 0.42
Bel7402/5-FU [5]
  Ratio: 0.33
[6]
  Ratio IC50: 0.36
Bel7402/5-FU [7]
  Activity: Active
Bel7402/5-FU [8]
  Ratio: 0.17
Bel7402/5-FU [9]
  Activity: Active
Bel7402/5-FU [10]
  Activity: Active
Bel7402/5-FU [11]
  Ratio: 0.63
Bel7402/5-FU [12]
  Activity: Active
Bel7402/5-FU [13]
  Ratio: 0.12
Bel7402/5-FU [14]
  Activity: Active
Bel7402/5-FU [15]
  Activity: Active
Bel7402/5-FU [16]
  Ratio: 0.35
Bel7402/5-FU [17]
  Ratio: 0.33
Bel7402/5-FU [18]
  Ratio: 0.37
Bel7402/5-FU [19]
  Ratio: 0.51
Bel7402/5-FU [20]
  Ratio: 0.39
Bel7402/5-FU [21]
  IC50: 2160 nM
Bel7402/5-FU [22]
  Ratio: 0.2
Bel7402/5-FU [23]
  Activity: 27.1%
Bel7402/5-FU [24]
  Ratio: 0.28
Bel7402/5-FU [25]
  Activity: 51.09%
Bel7402/5-FU [26]
  Activity: Active
[27]
  Ratio: 0.54
[28]
  Ratio: 0.37
Bel7402/5-FU [29]
  Activity: 21.81%
Bel-7402
  IC50: 5900 nM
Bel7402/5-FU [30]
  Ratio: 0.45
Bel7402/5-FU [31]
  Ratio: 0.3
Bel7402/5-FU [32]
  Ratio: 0.36
Bel7402/5-FU [33]
  Activity: 5.19%
L02
  IC50: 1860 nM
Bel7402/5-FU [34]
  Activity: 7.18%
[35]
  Ratio: 0.4
